The record followed here is patent publication EP3388430A1, “COMPOUND, COMPOUND FOR USE IN THE TREATMENT OF A PATHOLOGICAL CONDITION, A PHARMACEUTICAL COMPOSITION AND A METHOD FOR PREPARING SAID COMPOUND” (Technische Universität München, priority 2017, dated 2018).

The target in one experiment is T1, EphA2 (Homo sapiens, UniProt P29317).
T1 construct: enrichment of ATP-pocket containing proteins (mainly kinases) from complex native cell lysates; endogenous in cells; host or cells: native cell lysate
Put plainly: Chemical proteomic affinity matrix competition binding in cell lysate (Kd app, CATDS). Conditions: CATDS (EphA2) at the concentration corresponding to the Kd app for EphA2; compared with dasatinib. From the text: Several of the compounds according to the invention were further evaluated by a chemical proteomic approach facilitating the identification and quantification of drug-protein interactions. This technology utilizes an affinity matrix comprising five immobilized broad spectrum kinase inhibitors for enrichment of ATP-pocket containing proteins (mainly kinases) from complex native cell lysates as described in Bantscheff et al, Nat Biotechnol., 2007, 25(9):1035-44 and Médard et al, L Proteome Res., 2015, 14(3):1574-86. Coupled to quantitative mass spectrometry readout, this chemical proteomic approach allows for the simultaneous identification and quantification of about 300 native human protein kinases. […]
The compounds according to the invention were tested in nine different concentrations (including a DMSO control) ranging from 3 nM to 30 µM. […] Compound selectivity was determined by calculation of a selectivity score named CATDS (concentration and target dependent selectivity). […] It is calculated by dividing the target binding of the target protein (in this case EphA2) by the sum of all target bindings (including the target protein of interest, in this case EphA2) at a particular concentration (in this case the concentration corresponding to the Kd^app value of a compound for EphA2). […]

Another experiment concerns SF-268 cells. The experiment in a line: SF-268 cell viability, resazurin-based assay. Conditions: Homo sapiens, SF-268, 72 h; three days of treatment; three biological and three technical replicates, Fig. 8; read-out: cellular potency (EC50), SF-268 cell viability. As for the experimental part:
The dependency of viability of SF-268 cells on EphA2 expression was validated by siRNA knockdown experiments. SF-268 cells were treated with four siRNAs targeting EphA2 expression independently and a mixture of the four siRNAs. Experiments were performed in three biological and three technical replicates. Cell death siRNA and scrambled siRNA were used as positive and negative controls. After six days of treatment, cellular viability was determined by a resazurin-based assay system measuring the reduction of resazurin as a function of metabolic activity.
Cellular potency was determined as EC50 value after three days of treatment using the above mentioned resazurin-based assay system in three biological and three technical replicates.

The term EC50 denotes the midpoint of the concentration-response curve.

T1 sequence (P29317 24-976): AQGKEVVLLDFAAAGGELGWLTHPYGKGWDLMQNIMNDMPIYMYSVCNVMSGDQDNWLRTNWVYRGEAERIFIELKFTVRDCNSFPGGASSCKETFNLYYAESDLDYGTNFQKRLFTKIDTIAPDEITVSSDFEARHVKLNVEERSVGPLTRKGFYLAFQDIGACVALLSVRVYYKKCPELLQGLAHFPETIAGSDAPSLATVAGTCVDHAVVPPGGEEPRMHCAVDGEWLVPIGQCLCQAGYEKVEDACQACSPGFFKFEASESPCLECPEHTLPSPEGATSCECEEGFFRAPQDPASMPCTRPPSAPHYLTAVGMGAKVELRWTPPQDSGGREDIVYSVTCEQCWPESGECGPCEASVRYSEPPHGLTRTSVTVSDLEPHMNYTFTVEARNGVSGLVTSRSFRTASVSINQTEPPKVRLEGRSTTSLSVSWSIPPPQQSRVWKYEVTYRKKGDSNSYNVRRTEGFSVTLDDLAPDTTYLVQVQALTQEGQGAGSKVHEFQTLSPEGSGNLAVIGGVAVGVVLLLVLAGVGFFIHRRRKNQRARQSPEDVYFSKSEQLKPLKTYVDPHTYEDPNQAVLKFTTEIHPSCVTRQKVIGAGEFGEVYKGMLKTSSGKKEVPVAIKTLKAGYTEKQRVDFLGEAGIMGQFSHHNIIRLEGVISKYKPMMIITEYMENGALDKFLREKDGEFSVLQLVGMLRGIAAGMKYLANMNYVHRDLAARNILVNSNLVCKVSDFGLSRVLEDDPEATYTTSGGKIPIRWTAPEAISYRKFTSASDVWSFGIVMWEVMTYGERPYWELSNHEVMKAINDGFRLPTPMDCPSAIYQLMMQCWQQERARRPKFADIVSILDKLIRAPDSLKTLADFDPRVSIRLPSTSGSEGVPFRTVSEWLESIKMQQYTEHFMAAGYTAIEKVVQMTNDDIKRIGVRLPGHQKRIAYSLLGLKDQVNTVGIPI

Regarding `Cc1cccc(Cl)c1NC(=O)c1cnc(Nc2cccc(C(=O)NC3CCNCC3(F)F)c2)s1` (stereo not shown) [Compound 28, N-(2-chloro-6-methylphenyl)-2-((3-((3,3-difluoropiperidin-4-yl)carbamoyl)phenyl)amino)thiazole-5-carboxamide], the “selectivity for EphA2 binding (CATDS)” value on EphA2 is listed as “improved selectivity”.

For `Cc1cccc(Cl)c1NC(=O)c1cnc(Nc2cc(N3CCOCC3)cc(N3CCOCC3)c2)s1` [Compound 40, N-(2-chloro-6-methylphenyl)-2-((3,5-dimorpholinophenyl)amino)thiazole-5-carboxamide], the “selectivity for EphA2 binding (CATDS)” value at EphA2 is recorded as “improved selectivity”. For the same compound, the EC50 with SF-268 cells was 94 nM.

Consider `Cc1cccc(Cl)c1NC(=O)c1cnc(Nc2cc(N3CCOCC3)cc(S(C)(=O)=O)c2)s1` [Compound 41, N-(2-chloro-6-methylphenyl)-2-((3-(methylsulfonyl)-5-morpholinophenyl)amino)thiazole-5-carboxamide], for which the EC50 with SF-268 cells is 504 nM.
